Assay results published in ChEMBL document CHEMBL5634142, “Novel thienopyrimidones targeting hepatic and erythrocytic stages of Plasmodium parasites with increased microsomal stability” (Eur J Med Chem, 2023).

Key:
[1] = tested on: Plasmodium berghei; assay: Antiplasmodial activity against hepatic stage of Plasmodium berghei ANKA sporozoites infected in Cynomolgous monkey hepatocytes harboring Simian virus assessed as reduction in parasite growth administered for 3 hrs followed by replacement with fresh medium containing compound for every 24 hrs by DAPI staining based analysis; assay type: functional, organism-based; conditions: Hepatocyte
[2] = Cytotoxicity against Cynomolgous monkey hepatocytes harboring Simian virus assessed as reduction in cell viability administered for 3 hrs followed by replacement with fresh medium containing compound for every 24 hrs by DAPI staining based analysis; assay type: toxicity, Macaca fascicularis, Hepatocyte; conditions: cynomolgus monkey
[3] = tested on: Plasmodium falciparum; assay: Antiplasmodial activity against erythrocytic stage of chloroquine, pyrimethamine and sulfadoxine resistant Plasmodium falciparum K1 infected in human erythrocytes assessed as reduction in parasite growth incubated for 72 hrs by SYBR green I fluorescence based spectrophotometric analysis; assay type: functional, organism-based; conditions: K1, Erythrocyte
[4] = Cytotoxicity against human HepG2 cells assessed as reduction in cell viability incubated for 72 hrs by MTT assay; assay type: toxicity, cell-based
[5] = Stability in CD-1 mouse microsomes assessed as intrinsic clearance measured upto 40 mins in presence of NADP; assay type: ADME, Microsome
[6] = Stability in CD-1 mouse microsomes assessed as half-life in presence of NADP; assay type: ADME, Microsome
[7] = Selectivity index, ratio of CC50 for cytotoxicity against human HepG2 cells to EC50 for antiplasmodial activity against erythrocytic stage of chloroquine, pyrimethamine and sulfadoxine resistant Plasmodium falciparum K1 infected in human erythrocytes; assay type: toxicity, cell-based; conditions: read-out: Ratio CC50/EC50
[8] = Solubility of compound in DMSO; assay type: physicochemical
[9] = biological target: Voltage-gated inwardly rectifying potassium channel KCNH2 (Homo sapiens, UniProt Q12809); assay: Inhibition of hERG incubated for 4 hrs by fluorescence polarization assay; assay type: toxicity
[10] = Chromatographic hydrophobicity index, log D of the compound at pH 7.4 by HPLC analysis; assay type: physicochemical; conditions: buffer
[11] = Effective permeability of compound at pH 5 incubated for 4 hrs by PAMPA-GIT assay; assay type: ADME; conditions: read-out: Peff
[12] = Solubility of compound in PBS at 1 mg incubated for 10 mins by HPLC analysis; assay type: physicochemical
[13] = Effective permeability of compound at pH 7.4 incubated for 4 hrs by PAMPA-GIT assay; assay type: ADME; conditions: read-out: Peff

Chain of Voltage-gated inwardly rectifying potassium channel KCNH2 (Q12809 whole entry): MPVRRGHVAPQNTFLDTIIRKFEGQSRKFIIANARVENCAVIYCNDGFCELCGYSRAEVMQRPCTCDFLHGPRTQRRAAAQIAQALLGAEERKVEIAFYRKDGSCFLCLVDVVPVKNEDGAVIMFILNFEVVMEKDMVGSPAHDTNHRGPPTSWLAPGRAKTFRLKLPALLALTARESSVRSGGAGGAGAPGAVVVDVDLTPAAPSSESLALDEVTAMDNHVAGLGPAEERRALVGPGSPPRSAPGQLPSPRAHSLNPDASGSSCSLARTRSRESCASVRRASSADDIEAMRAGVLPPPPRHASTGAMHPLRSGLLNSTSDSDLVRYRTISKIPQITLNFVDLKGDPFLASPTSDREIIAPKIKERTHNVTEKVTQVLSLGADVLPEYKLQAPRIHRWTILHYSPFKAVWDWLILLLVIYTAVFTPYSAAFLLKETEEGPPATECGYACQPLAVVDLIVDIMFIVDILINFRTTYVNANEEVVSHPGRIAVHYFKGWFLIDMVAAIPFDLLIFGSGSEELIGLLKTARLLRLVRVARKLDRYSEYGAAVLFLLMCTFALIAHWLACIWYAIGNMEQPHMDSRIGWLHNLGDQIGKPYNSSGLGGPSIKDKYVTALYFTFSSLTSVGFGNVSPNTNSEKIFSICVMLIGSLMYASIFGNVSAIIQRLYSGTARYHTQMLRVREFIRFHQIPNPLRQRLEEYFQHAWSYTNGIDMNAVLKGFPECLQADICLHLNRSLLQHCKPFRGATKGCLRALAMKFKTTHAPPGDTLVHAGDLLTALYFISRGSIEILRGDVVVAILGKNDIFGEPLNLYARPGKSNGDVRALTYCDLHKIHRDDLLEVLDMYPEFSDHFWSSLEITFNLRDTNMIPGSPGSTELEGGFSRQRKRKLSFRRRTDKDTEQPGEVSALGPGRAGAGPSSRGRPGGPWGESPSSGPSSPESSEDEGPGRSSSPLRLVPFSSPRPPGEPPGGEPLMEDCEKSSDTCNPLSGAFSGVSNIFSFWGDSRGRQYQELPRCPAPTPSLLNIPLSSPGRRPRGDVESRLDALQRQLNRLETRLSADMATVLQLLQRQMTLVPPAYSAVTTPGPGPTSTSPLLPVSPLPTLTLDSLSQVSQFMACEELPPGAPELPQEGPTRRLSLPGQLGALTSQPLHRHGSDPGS

Row | SMILES | EC50 [1] [µM] | CC50 at 3 h [2] [µM] | EC50 [3] [µM] | CC50 at 72 h [4] [µM] | selectivity ratio [7] | other results
1 | COc1cc(NC(C)CCCN)c2ncccc2c1 (stereo not drawn) [PRIMAQUINE] | 7.26 | > 50 |  |  |  | 
2 | Cc1ccc(-c2cc3nc(N)n(C)c(=O)c3s2)cc1 |  |  | > 25 | > 6.2 |  | 
3 | [2H]C([2H])([2H])C(Nc1nc2cc(-c3ccc(C)cc3)sc2c(=O)[nH]1)(C([2H])([2H])[2H])C([2H])([2H])[2H] | 13.7 | > 100 | 0.1 | 17.9 | 149 | microsomal CLint [5]: 209 µL/min/mg; half-life [6]: 8.5 min
4 | Cc1ccc(-c2cc3nc(NC4CCCC4)[nH]c(=O)c3s2)cc1 | 10.5 | > 100 | 1.4 | > 7.8 | > 5.6 | microsomal CLint [5]: 58 µL/min/mg; half-life [6]: 38 min
5 | Cc1ccc(-c2cc3nc(N4CCN(C)CC4)[nH]c(=O)c3s2)cc1 |  |  | > 25 | 8.7 | < 0.3 | 
6 | Cc1ccc(-c2cc3nc(N4CCCC4)[nH]c(=O)c3s2)cc1 | > 100 | > 200 | 1.4 | > 3.1 | > 2.1 | 
7 | CCn1c(NC(C)(C)C)nc2cc(-c3ccc(C)cc3)sc2c1=O |  |  | > 12.5 | 5.8 | 1.4 | 
8 | Cc1ccc(-c2cc3nc(NC4CCC4)[nH]c(=O)c3s2)cc1 | 11.2 | > 100 | 1.1 | 14 | 12.7 | microsomal CLint [5]: 78 µL/min/mg; half-life [6]: 29 min
9 | Cc1ccc(-c2cc3nc(NC(C)(C)C)n(C(C)C)c(=O)c3s2)cc1 |  |  | 4.2 | > 3.9 | > 0.9 | 
10 | Cc1ccc(-c2cc3nc(N4CCC4)[nH]c(=O)c3s2)cc1 |  |  |  |  |  | solubility [8]: Insoluble
11 | Cc1ccc(-c2cc3nc(NC4CCCCC4)[nH]c(=O)c3s2)cc1 |  |  | > 12.5 | > 12.5 |  | 
12 | [2H]C([2H])([2H])C(Nc1nc2cc(-c3ccc(C)cc3)sc2c(=O)[nH]1)C([2H])([2H])[2H] | 15.9 | > 100 | 0.2 | > 10 | > 50 | microsomal CLint [5]: 214 µL/min/mg; half-life [6]: 11 min
13 | Cc1ccc(-c2cc3nc(NC(C)(C)C)n(-c4ccccc4)c(=O)c3s2)cc1 |  |  | > 12.5 | > 3.1 |  | 
14 | C[C@H]1c2cccc(O)c2C(=O)C2=C(O)[C@]3(O)C(=O)C(C(N)=O)=C(O)[C@@H](N(C)C)[C@@H]3[C@@H](O)[C@@H]21 [DOXYCYCLINE ANHYDROUS] |  |  |  |  | 4 | 
15 | Cc1ccc(-c2cc3nc(NC4CC4)[nH]c(=O)c3s2)cc1 | 5.5 | > 100 | 0.9 | 4 | 4.4 | microsomal CLint [5]: 136 µL/min/mg; half-life [6]: 15 min
16 | Cc1ccc(-c2cc3nc(N4CCOCC4)[nH]c(=O)c3s2)cc1 |  |  | > 10 | 3.6 | < 0.4 | 
17 | Cc1ccc(-c2cc3nc(NC(C)C)[nH]c(=O)c3s2)cc1 | 55.6 | > 200 |  |  |  | microsomal CLint [5]: 214 µL/min/mg; half-life [6]: 11 min
18 | Cc1ccc(-c2cc3nc(C(C)(C)C)[nH]c(=O)c3s2)cc1 |  |  |  |  |  | IC50 [9]: > 100 µM
19 | Cc1ccc(-c2cc3nc(N4CCCCC4)[nH]c(=O)c3s2)cc1 |  |  | > 25 | > 3.1 |  | 
20 | Cc1ccc(-c2cc3nc(NC4CCC4)[nH]c(=O)c3s2)cc1.Cl |  |  |  |  |  | IC50 [9]: > 100 µM; chromatographic logD [10]: 3.16; Papp at 4 h [11]: 18.1 ×10⁻⁶ cm/s; solubility at 10 min [12]: 1.4 µM; Papp at 4 h [13]: 4.36 ×10⁻⁶ cm/s
21 | Cc1ccc(-c2cc3nc(NC(C)(C)C(F)(F)F)[nH]c(=O)c3s2)cc1 |  |  | > 10 | 23.9 | > 10 | 
22 | Cc1ccc(-c2cc3nc(N)n(CCCN(C)C)c(=O)c3s2)cc1 |  |  | 9.8 | 4.1 | 0.42 | 
23 | Cc1ccc(-c2cc3nc(N[C@H]4CCNC4)[nH]c(=O)c3s2)cc1 |  |  | > 31.2 | 13.2 | < 0.4 | 
